Reference: patent US20050197364A1, “Amide compounds as ion channel ligands and uses thereof” (priority 2003, published 2005)

Legend:
[1] = test system: capsaicin induced plasma extravasation; experiment: Plasma extravasation study (capsaicin applied to ear, Evans Blue); type: in vivo, rat; conditions: rats, dose of 30 mg/kg, dosed two hours before Evans Blue; FIG. 2
Protocol: The density of TRPV1 expression is enhanced during an inflammatory condition. Therefore TRPV1 antagonists have been investigated in three different models of inflammatory pain, namely plasma extravasation, paw lick assay, and thermal hyperalgesia.
Sprague-Dawley male rats obtained from Charles River, San Diego, Calif. were dosed with compound 18. Two hours later, they were injected with Evan's Blue (10 ml/kg or 150 μl). Thirty minutes after I.V. injection, 10 μl of 25 mM capsaicin in 100% ethanol was applied to the left ear of the animal, followed by 10 μl vehicle (100% EtOH) to the right ear of the […]. Fifteen minutes later, the animal was sacrificed using CO2. Each ear was removed, placed into labeled tubes and weighed. The dye was then extracted from the ears by drying the ears at 55-60° overnight. The following day, 250 μl formamide was added and left at 55-60° overnight.
An Evans blue standard curve was first generated ([…]). Samples (with ears) were spun for at least 1 minute before addition of 100 μl of each sample to appropriate wells. Samples were analyzed in a plate holder by SOFTmax PRO. Standards were graphed to generate a standard curve and then used to extrapolate Evans Blue concentrations of experimental samples.

CYP2C19 = CYP2C19 (Homo sapiens, UniProt P33261); experiment: Cytochrome p450 inhibition assessment, CYP2C19; type: in vitro ADME; conditions: estimated
Protocol: The ability of test compounds to inhibit five major human cytochrome p450 isozymes was evaluated. Cytochrome p450 inhibition assays were performed on 96-well microtiter assay plates according to the protocols described in Gentest P450 inhibition instruction manuals. The assays were performed in duplicate at 8 concentrations with the upper concentration of 100 μM followed by a 1:3 serial dilution. Reactions were initiated by the addition of 100 μL of enzyme/substrate mix to 100 μL of cofactor/serial dilution mix, and terminated by addition of 75 μL of a 4:1 acentonitrile: 0.5 M Tris base solution or by 2N NaOH for CYP3A4/DBF. Fluorescence was measured using a fluorescence plate reader (FLUOstar model 403, BMG Lab Technologies, Durham, N.C.). For reactions with inhibition greater than 50%, IC50 values were determined by fitting the data to the Hill equation using software GraphPad Prism (Version 4.02, GraphPad Software, San Diego, Calif.).

CYP2C19, sequence (P33261 whole entry): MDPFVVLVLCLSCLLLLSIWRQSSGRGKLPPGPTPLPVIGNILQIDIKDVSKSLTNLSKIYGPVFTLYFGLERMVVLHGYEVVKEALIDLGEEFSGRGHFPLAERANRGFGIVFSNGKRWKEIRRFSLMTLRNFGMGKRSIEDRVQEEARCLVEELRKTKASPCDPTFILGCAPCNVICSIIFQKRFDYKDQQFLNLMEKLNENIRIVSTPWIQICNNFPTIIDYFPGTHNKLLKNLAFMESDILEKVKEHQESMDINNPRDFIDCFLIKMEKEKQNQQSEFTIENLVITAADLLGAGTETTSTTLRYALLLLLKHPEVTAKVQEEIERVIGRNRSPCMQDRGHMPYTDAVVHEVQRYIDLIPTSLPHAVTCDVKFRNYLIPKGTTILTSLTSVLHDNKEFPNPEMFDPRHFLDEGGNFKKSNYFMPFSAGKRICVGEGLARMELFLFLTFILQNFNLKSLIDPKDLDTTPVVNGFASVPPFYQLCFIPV

Question: With `O=C(Nc1ccc(C(F)(F)F)cc1)c1ccc(-c2ncccc2Cl)cc1` [Compound 18, 4-(3-Chloropyridin-2-yl)-N-(4-trifluoromethyl-phenyl)benzamide] as the compound, how does the “capsaicin induced plasma extravasation” value [1] read?
Answer: significantly blocks

Question: What about the IC50 (CYP2C19) of the same compound?
Answer: 26.9 µM
